Test results as given in US6509328B1, “Glutamate receptor antagonists” (Hoffmann-La Roche Inc., priority 1999, dated 2003).

| Compound | melting point |
| --- | --- |
| O=C1CC(c2cccc(-n3ccnc3)c2)=Nc2ccc(-c3ccc(OCc4ccccc4)nc3)cc2N1 [Example 74, 8-(6-Benzyloxy-pyridin-3-yl)-4-(3-imidazol-1-yl-phenyl)-1,3-dihydro-benzo [b][1,4]-diazepin-2-one] | 225 to 231 °C |
| O=C1CC(c2sccc2Cl)=Nc2ccc(-c3ccccc3)cc2N1 [Example 38, 4-(3-Chloro-thiophen-2-yl)-8-phenyl-1,3-dihydro-benzo [b][1,4]diazepin-2-one] | 228 °C (dec.) |
| Cc1cn(-c2nc(C3=Nc4ccc(-c5ccccc5F)cc4NC(=O)C3)cs2)cn1 [Example 106, 8-(2-Fluoro-phenyl)-4-[2-(4-methyl-imidazol-1-yl)-thiazol-4-yl]-1,3-dihydro-benzo[b][1,4]diazepin-2-one] | 229 °C |
| O=C1CC(c2ccnc(-n3ccnc3)c2)=Nc2ccc(-c3ccc(F)cc3)cc2N1 [Example 69, 8-(4-Fluoro-phenyl)-4-(2-imidazol-1-yl-pyridin-4-yl)-1,3-dihydro-benzo [b][1,4]diazepin-2-one] | 213 °C (dec.) |
| CS(=O)(=O)N1CC=C(c2ccc3c(c2)NC(=O)CC(c2cccc(C#N)c2)=N3)CC1 [Example 46, 3-[7-(1-Methanesulfonyl-1,2,3,6-tetrahydro-pyridin-4-yl)-4-oxo-4,5-dihydro-3H-benzo [b][1,4]diazepin-2-yl]-benzonitrile] | 211 to 213 °C (dec.) |
| O=C1CC(c2ccnc(-c3nc(CO)cs3)c2)=Nc2ccc(-c3ccc(F)cc3)cc2N1 [Example 158, 8-(4-Fluoro-phenyl)-4-[2-(4-hydroxymethyl-thiazol-2-yl)-pyridin-4-yl]-1,3-dihydro-benzo[b][1,4]diazepin-2-one] | 225 to 229 °C |

Further lines, results first:

| melting point | Compound |
| --- | --- |
| 225 to 229 °C (dec.) | CCc1ccc(-c2ccc3c(c2)NC(=O)CC(c2cccc(C#N)c2)=N3)cc1 [Example 9, 3-[7-(4-Ethyl-phenyl)-4-oxo-4,5-dihydro-3H-benzo[b][1,4]diazepin-2-yl]-benzonitrile] |
| 227 °C | Cc1nccn1-c1cccc(C2=Nc3ccc(-c4ccc(F)cc4)cc3NC(=O)C2)c1 [Example 82, 8-(4-Fluoro-phenyl)-4-[3-(2-methyl-imidazol-1-yl)-phenyl]-1,3-dihydro-benzo[b][1,4]diazepin-2-one] |
| 209 to 213 °C (dec.) | N#Cc1ccc(-c2ccc3c(c2)NC(=O)CC(c2cccc(-n4ccnc4)c2)=N3)cc1 [Example 66, 4-[2-(3-Imidazol-1-yl-phenyl)-4-oxo-4,5-dihydro-3H-benzo [b][1,4]diazepin-7-yl]-benzonitrile] |
| 232 to 235 °C | N#Cc1cccc(C2=Nc3ccc(-c4cccc(F)c4)cc3NC(=O)C2)c1 [Example 96, 3-[7-(3-Fluoro-phenyl)-4-oxo-4,5-dihydro-3H-benzo [b][1,4]diazepin-2-yl]-benzonitrile] |
| 240 to 245 °C (dec.) | N#Cc1cccc(C2=Nc3ccc(-c4cccc5ccccc45)cc3NC(=O)C2)c1 [Example 20, 3-(7-Naphthalen-1-yl-4-oxo-4,5-dihydro-3H-benzo[b][1,4]diazepin-2-yl)-benzonitrile] |
| 237 to 241 °C (dec.) | N#Cc1cccc(C2=Nc3ccc(-c4ccc(OC(F)(F)F)cc4)cc3NC(=O)C2)c1 [Example 43, 3-[4-Oxo-7-(4-trifluoromethoxy-phenyl)-4,5-dihydro-3H-benzo [b][1,4]diazepin-2-yl]-benzonitrile] |
| 239 to 240 °C (dec.) | N#Cc1cccc(C2=Nc3ccc(C#Cc4ccccc4Cl)cc3NC(=O)C2)c1 [Example 4, 3-[7-(2-Chloro-phenylethynyl)-4-oxo-4,5-dihydro-3H-benzo[b][1,4]diazepin-2-yl]-benzonitrile] |
| 248 to 251 °C (dec.) | Cc1cccc(-c2ccc3c(c2)NC(=O)CC(c2cccc(C#N)c2)=N3)c1 [Example 30, 3-(4-Oxo-7-m-tolyl-4,5-dihydro-3H-benzo [b][1,4]diazepin-2-yl)-benzonitrile] |
